# Test results published in a melting point compilation (Tetko et al.; mined from patent text by program, amines drawn as free bases though some values may be those of a salt).
row,Structure (SMILES),melting point [°C]
1,CCN1CCN(CC)c2cc(Nc3nc(Cl)ncc3Cl)ccc2C1,69 to 73
2,CC(=O)N1CCN(c2ccc(N)cc2)CC1,142 to 144
3,O=C(N[C@H]1CC[C@H](CCN2CCN(c3nccc4c3CCO4)CC2)CC1)c1ccc2c(c1)OCO2,244
4,FC(F)(F)c1cccc(C(Cl)(Cl)Cl)c1Cl,32 to 33
5,C=CCONC(=O)n1nc(Oc2c(Cl)cc(C(F)(F)F)cc2Cl)cc1C,68 to 70
6,O=C(CN1CCCC1)c1ccc(F)cc1,49 to 50
7,O=C(O)C(Cl)(Cl)CCCCCCCCCCc1ccccc1,157 to 159
8,CNC(=O)Oc1ccc2[nH]cc(CCCN3CCN(c4ncncc4OC)CC3)c2c1,120 to 122
9,Cc1cc(C2=NOC(c3cc(Cl)cc(Cl)c3)(C(F)(F)F)C2)ccc1C(=O)NC1CON(CCO)C1=O (centres undefined),78
10,O=[N+]([O-])c1cc(Br)cc(Br)c1,102 to 104
11,CC(C)n1cc(C(=O)O)c2ccc(Br)cc21,207 to 209
12,COC(=O)Nc1ccc(Br)cc1I,129 to 130
13,Nc1c(C(=O)O)c(=O)[nH]c2cc(Cl)ccc12,> 330
14,Cn1ccnc1C(C)(C)O,128 to 129
15,Clc1ccc2c(c1)C(c1ccsc1)=NCC1COCCN21 (centres undefined),207 to 212
16,O=C(O)CSCCCCCNS(=O)(=O)c1ccc(Cl)cc1,93 to 94
17,C=C(C)CC(O)(C(Nc1cccc2nc(C)ncc12)c1ccc(Cl)cc1OC)C(F)(F)F (centres undefined),193
18,COC(=O)c1cc2c(cnn2C)nc1C(=O)OC,148 to 149
19,CCOc1nc2cc(C)nn2c2ccncc12,156
20,COC(=O)c1sccc1S(=O)(=O)Nc1onc(C)c1C,113 to 116
21,CCCC(=O)c1c[nH]c(=O)[nH]1,268 to 270
22,COCCOc1ccc(/C=C(\C)C(=O)O)c(Oc2ncc(C(F)(F)F)cc2Cl)c1,122
23,CCOC(=O)Nc1ncc(-c2nc3ccccc3c(=O)n2-c2ccccc2OC)s1,263 to 264
24,CCCc1cn(C)c2c(=O)[nH]c(-c3cc(S(=O)(=O)N4CCN(CCCOC(C)=O)CC4)ccc3OCC)nc12,157 to 158
25,N#CC(=O)c1ccc(Cl)c(Cl)c1,70 to 71
26,O=C(Cl)c1cc(F)c(Cl)c([N+](=O)[O-])c1Cl,35 to 37
27,COc1c(C)c(C)c(OC)c(C(CCCC(=O)O)c2cccnc2)c1C (centres undefined),82 to 84
28,CCNC(=O)c1ccc(N2CCNCC2)c(F)c1,142 to 145
29,C#Cc1cc(C)nc(C(=O)Nc2ccn(C)n2)c1,226
30,CCOC(=O)CC(O)c1ccc([N+](=O)[O-])c(OC)c1 (centres undefined),54 to 56

# More lines, now with the values ahead:
row,melting point [°C],Structure (SMILES)
1,212 to 213,COCCc1nc2c(N)nc3cc(-c4cccc(CO)c4)ccc3c2n1CC(C)(C)O
2,220 to 224,O=c1nc(NCc2ccccc2)n2c3c1cnn3C(c1cccc(C(F)(F)F)c1)=CC2
3,203 to 204,COCN(c1cccc2cc(C(N)=O)n(COC)c12)S(=O)(=O)c1cccs1
4,90 to 91,Cn1ncc(-c2ccc(OCCCCl)cc2)cc1=O
5,74 to 75,C=CCSc1cn(C)cc(-c2cccc(C(F)(F)F)c2)c1=O
6,130 to 140,COc1cc(C(=O)N2CCC(CCN3CCC(C(=O)c4nc5ccccc5[nH]4)CC3)(c3ccc(Cl)c(Cl)c3)C2)cc(OC)c1OC (centres undefined)
7,155 to 158,COc1ccc(OC)c(COc2ccc3nc[nH]c(=O)c3c2)c1
8,179 to 180,O=C(NC(Cc1ccccc1)C(=O)O)c1ccc2cc(Oc3ccccc3)ccc2c1 (centres undefined)
9,124 to 125,CC(=O)NC1(c2ccc(CN3CCN(c4ccc(F)cc4F)CC3)cc2)CC1
10,180,COc1ccc(Br)c(C(=O)N2CCN(S(=O)(=O)c3ccc(Br)cc3)CC2)c1
11,158 to 160,COc1ccc(C2SCc3c(sc(N)c3C(=O)c3ccc(Cl)cc3)S2)cc1 (centres undefined)
12,128 to 129,CCn1nc2c(N)nc3ccccc3c2c1CCCCOC(C)=O
13,185 to 186,NS(=O)(=O)c1c(-c2ccccc2)sc2ccccc12
14,140 to 142,CN1CCC(N(C)S(=O)(=O)c2ccc(Nc3nc(Cl)cc(Nc4ccc(F)cc4)n3)cc2)CC1
15,137 to 141,Cc1ccsc1C(Cc1ccccc1N)N(C)C(=O)C(C)C (centres undefined)
16,142,O=C1c2ccccc2C(=O)N1Cc1ccccc1-c1noc2ccccc12
17,170 to 182,CC(CSC(=O)c1ccccc1)C(=O)N1CC(Oc2ccc(CC3Nc4cc(C(F)(F)F)c(S(N)(=O)=O)cc4S(=O)(=O)N3)cc2)CC1C(=O)O (centres undefined)
18,185,CC(C)(C)OC(=O)C[C@H](NC(=O)CNC(=O)c1csc(NC(=O)NCc2ccccc2)n1)C(=O)NCc1cccnc1
19,173 to 175,CC(C)(C)COc1c(-c2ccc(S(N)(=O)=O)cc2)cnn(-c2ccc(F)c(F)c2)c1=O
